# Values of other authors, collected in patent US8741342B2, “Pharmaceutical compositions comprising entacapone, levodopa, and carbidopa” (Wockhardt Research Centre, priority 2006, dated 2014).
# Conditions: qualitative description in background section
row,Compound,solubility in water
1,"C[C@@](Cc1ccc(O)c(O)c1)(NN)C(=O)O [Carbidopa, (−)-L-(α-hydrazino-(α-methyl-β-(3,4-dihydroxybenzene)propanoic acid monohydrate]",slightly soluble in water
2,"N[C@@H](Cc1ccc(O)c(O)c1)C(=O)O [Levodopa, (−)-L-α-amino-β-(3,4-dihydroxybenzene)propanoic acid]",slightly soluble in water
